Experimental data taken from PubChem BioAssay AID1117327 (Cheminformatics & Chemogenomics Research Group (CCRG), …, 2015).
“And” between values parts separate entries of the source, which are not always exact repeats. Equal entries are not always repeated. The source made the active and inactive calls. How the calls were made is not given here. Starred links: 1 amine or outer side, 2 acyl side, 3 side chain; linkers in the order of their positions; H or OH if unused. Positions of bridges follow the written chain, without caps; N, C: chain ends. Non-standard residues stand in square brackets, D forms with d. Residues, ends and D or L forms follow the SMILES beside them. Chains are numbered I, II in the order given. Actinocin(9to1) = Cc1c2oc3c(C)ccc(C(=O)[*:1])c3nc-2c(C(=O)[*:2])c(N)c1=O; NMeV = CN[C@H](C(=O)O)C(C)C; Sar = CNCC(=O)O

Each compound was assayed on C2C12 + WNT3A conditioned medium, alkaline phosphatase (assay: alkaline phosphatase induction in C2C12 cells, dose response, cell-based, WNT3A-conditioned medium (AID 1117327)).
Cc1cc(CC(C)CC(C)(C)C)n(O)c(=O)c1 (centres undefined) was tested, and the IC50 was > 20000 nM (inactive).
For C[n+]1c2cc(N)ccc2cc2ccc(N)cc21 (tested in a mixture with another compound), the IC50 was 1600 nM.
COC(=O)[C@H]1[C@H]2C[C@@H]3c4[nH]c5cc(OC)ccc5c4CCN3C[C@H]2C[C@@H](OC(=O)/C=C/c2ccc(O)c(OC)c2)[C@@H]1OC was tested, and the IC50 was 10400 nM (inactive).
With O[C@@H](c1cc(C(F)(F)F)nc2c(C(F)(F)F)cccc12)[C@H]1CCCCN1 the IC50 was > 20000 nM (inactive).
NC(N)=NN=C(/C=C/c1ccc([N+](=O)[O-])o1)/C=C/c1ccc([N+](=O)[O-])o1 was tested, and the IC50 was 372 nM.
O=C1OC2(c3cc(Br)c(O)cc3Oc3c2cc(Br)c(O)[c]3[Hg])c2ccccc21 (centres undefined) was tested, and the IC50 was > 20000 nM (inactive).
In the case of CC(C)C[C@H](NC(=O)[C@H](CCc1ccccc1)NC(=O)CN1CCOCC1)C(=O)N[C@@H](Cc1ccccc1)C(=O)N[C@@H](CC(C)C)C(=O)[C@@]1(C)CO1, the IC50 is reported as 15.2 nM.
For COC(=O)Nc1nc2ccc(C(=O)c3ccccc3)cc2[nH]1, the IC50 was 245 nM.
COC(=O)Nc1nc2ccc(S(=O)c3ccccc3)cc2[nH]1 (centres undefined) was tested, and the IC50 was 559 nM.
In the case of O=[N+]([O-])c1ccc(O)c2ncccc12, the IC50 is reported as 6360 nM (inactive).
With CCc1nc(N)nc(N)c1-c1ccc(Cl)cc1 the IC50 was 67.7 nM.
For CCCCCCCCCCCC(=O)[O][Sn]([CH2]CCC)([CH2]CCC)[O]C(=O)CCCCCCCCCCC, the IC50 was > 20000 nM (inactive).
With CC(=O)Oc1ccc(C2(c3ccc(OC(C)=O)cc3)Oc3ccccc3NC2=O)cc1 the IC50 was 14000 nM (inactive).
For CCCCCCCCCCCCNCCNCCNCC(=O)O, the IC50 was > 20000 nM (inactive).
O=C1C(I)=CC(=C(c2cc(I)c(O)c(I)c2)c2ccccc2C(=O)O)C=C1I was tested, and the IC50 was > 20000 nM (inactive).
Cc1nc(N)nc(N)c1-c1ccc(Cl)c(Cl)c1 gave an IC50 of 29.9 nM.
Cc1nc(Nc2ncc(C(=O)Nc3c(C)cccc3Cl)s2)cc(N2CCN(CCO)CC2)n1 was tested, and the IC50 was 6.7 nM.
COc1cc(C=C2CCC/C(=C\c3ccc(O)c(OC)c3)C2=O)ccc1O was tested, and the IC50 was > 20000 nM (inactive).
In the case of CSc1ccc2c(c1)C(N1CCN(C)CC1)Cc1ccccc1S2 (centres undefined), the IC50 is reported as > 20000 nM (inactive).
In the case of CC(C)(C)C(=O)OCOP(=O)(COCCn1cnc2c(N)ncnc21)OCOC(=O)C(C)(C)C, the IC50 is reported as 387 nM.
For COc1cc([C@@H]2c3cc4c(cc3[C@H](O)[C@H]3COC(=O)[C@H]23)OCO4)cc(OC)c1OC, the IC50 was 9.1 nM.
COC(=O)c1nc(Cl)c(Cl)nc1N was tested, and the IC50 was 157 nM.
In the case of Clc1cc(Cl)c(OCC#CI)cc1Cl, the IC50 is reported as > 20000 nM (inactive).
In the case of CC[C@@H]([C@H](C)O)n1ncn(-c2ccc(N3CCN(c4ccc(OC[C@@H]5CO[C@@](Cn6cncn6)(c6ccc(F)cc6F)C5)cc4)CC3)cc2)c1=O, the IC50 is reported as 1630 nM.
For CC[C@@]1(O)C(=O)OCc2c1cc1n(c2=O)Cc2c-1nc1ccccc1c2/C=N/OC(C)(C)C, the IC50 was 3.2 nM.
Cc1cc(=O)c2c(O)c3c(O)cc(=O)c4c3c3c(cc(O)c1c23)C(C)(C)C=4O gave an IC50 of 2910 nM.
In the case of C=CC(=O)Nc1cc2c(Nc3ccc(F)c(Cl)c3)ncnc2cc1OCCCN1CCOCC1, the IC50 is reported as 9460 nM (inactive).
Work on [O-][n+]1ccccc1SSc1cccc[n+]1[O-] yielded an IC50 of 131 nM.
CCCCCCCCCCCCCC[N+](C)(C)C was tested, and the IC50 was > 20000 nM (inactive).
In the case of CC[C@@]1(O)C(=O)OCc2c1cc1n(c2=O)Cc2cc3c(CN(C)C)c(O)ccc3nc2-1, the IC50 is reported as 17.9 nM.
Cc1ccc2nc(N)[nH]c(=O)c2c1Sc1ccncc1 gave an IC50 of 244 nM.
COc1cc([C@@H]2c3cc4c(cc3[C@@H](O[C@@H]3O[C@@H]5CO[C@@H](C)O[C@@H]5[C@H](O)[C@@H]3O)[C@H]3COC(=O)[C@H]23)OCO4)cc(OC)c1O was tested, and the IC50 was > 20000 nM (inactive).
In the case of NC(=NCCCCCCN=C(N)/N=C(\N)Nc1ccc(Cl)cc1)/N=C(\N)Nc1ccc(Cl)cc1, the IC50 is reported as > 20000 nM (inactive).
In the case of Cc1cc2c(C(C)C)c(O)c(O)c(C=O)c2c(O)c1-c1c(C)cc2c(C(C)C)c(O)c(O)c(C=O)c2c1O, the IC50 is reported as > 20000 nM (inactive).
O=[N+]([O-])C(Br)(CO)CO was tested, and the IC50 was > 20000 nM (inactive).
Work on CN1CC[C@H](c2c(O)cc(O)c3c(=O)cc(-c4ccccc4Cl)oc23)[C@H](O)C1 yielded an IC50 of 461 nM.
For OCCN1CCN(CCCN2c3ccccc3Sc3ccc(Cl)cc32)CC1, the IC50 was > 20000 nM (inactive).
In the case of CC(=O)[C@]1(O)Cc2c(O)c3c(c(O)c2[C@@H](O[C@H]2C[C@H](N)[C@H](O)[C@H](C)O2)C1)C(=O)c1ccccc1C3=O, the IC50 is reported as 504 nM.
Work on O=C1C2CC=CCC2C(=O)N1SC(Cl)(Cl)Cl (centres undefined) yielded an IC50 of 511 nM.
O=C1c2c(O)ccc(O)c2C(=O)c2c(NCCNCCO)ccc(NCCNCCO)c21 showed an IC50 of 1510 nM.
COc1cc(NCc2ccc3nc(N)nc(N)c3c2C)cc(OC)c1OC was tested, and the IC50 was > 20000 nM (inactive).
With O=C(Nc1ccc([N+](=O)[O-])cc1Cl)c1cc(Cl)ccc1O the IC50 was > 20000 nM (inactive).
With Cc1ccc([N+](=O)[O-])[c]2c1[O][Hg]2 the IC50 was 155 nM.
With Nc1ccc2cc3ccc(N)cc3nc2c1 the IC50 was > 20000 nM (inactive).
With CC[C@]1(O)C[C@@H]2CN(CCc3c([nH]c4ccccc34)[C@@](C(=O)OC)(c3cc4c(cc3OC)N(C)[C@H]3[C@@](O)(C(=O)OC)[C@H](OC(C)=O)[C@]5(CC)C=CCN6CC[C@]43[C@@H]65)C2)C1 the IC50 was > 20 µM (inactive) and 8.9 nM.
With Oc1c(Cl)cc(Cl)cc1Sc1cc(Cl)cc(Cl)c1O the IC50 was > 20000 nM (inactive).
Compound CCC1=C[C@@H]2CN(C1)Cc1c([nH]c3ccccc13)[C@@](C(=O)OC)(c1cc3c(cc1OC)N(C)[C@H]1[C@@](O)(C(=O)OC)[C@H](OC(C)=O)[C@]4(CC)C=CCN5CC[C@]31[C@@H]54)C2 has an IC50 of 10.1 nM.
For CCCCCCCCCCCCCCC[C@H](O)[C@@H](N)CO, the IC50 was > 20000 nM (inactive).
With CN(C)C(=S)SSC(=S)N(C)C the IC50 was > 20000 nM (inactive).
Compound COC(=O)Nc1nc2ccc(C(=O)c3cccs3)cc2[nH]1 has an IC50 of 43.4 nM.
Cc1nc2ccc(CN(C)c3ccc(C(=O)N[C@@H](CCC(=O)O)C(=O)O)s3)cc2c(=O)[nH]1 gave an IC50 of 4.2 nM.
COC(=O)Nc1nc2ccc(C(=O)C3CC3)cc2[nH]1 was tested, and the IC50 was 684 nM.
With CN(C)CCCN1c2ccccc2Sc2ccc(C(F)(F)F)cc21 the IC50 was > 20000 nM (inactive).
Cc1cc(C2CCCCC2)n(O)c(=O)c1 was tested, and the IC50 was 1050 nM.
In the case of CCCCCCCCCCCCCC[N+](C)(C)Cc1ccccc1, the IC50 is reported as > 20000 nM (inactive).
With CCCCc1ccc2nc(NC(=O)OC)[nH]c2c1 the IC50 was 68.2 nM.
Work on COC(=O)Nc1nc2ccc(Sc3ccccc3)cc2[nH]1 yielded an IC50 of 438 nM.
In the case of Cc1ccc2c(Br)cc(Br)c(O)c2n1, the IC50 is reported as > 20000 nM (inactive).
With CN1C[C@H](CNC(=O)OCc2ccccc2)C[C@@H]2c3cccc4c3c(cn4C)C[C@H]21 the IC50 was > 20000 nM (inactive).
Compound CCCCC1C(=O)N(c2ccccc2)N(c2ccc(O)cc2)C1=O (centres undefined) has an IC50 of 4920 nM.
For O=c1c(-c2ccccc2)c1-c1ccccc1, the IC50 was 3620 nM.
CCN(CC)CCNc1ccc(CO)c2sc3ccccc3c(=O)c12 showed an IC50 of 2670 nM.
For O=C(CCl)c1ccc(Cl)cc1Cl, the IC50 was > 20000 nM (inactive).
With COc1cccc2c1C(=O)c1c(O)c3c(c(O)c1C2=O)C[C@@](O)(C(C)=O)C[C@@H]3O[C@H]1C[C@H](N)[C@H](O)[C@H](C)O1 the IC50 was 6.1 nM.
In the case of CCCOc1ccc2nc(NC(=O)OC)[nH]c2c1, the IC50 is reported as 88.1 nM.
Compound CN(Cc1cnc2nc(N)nc(N)c2n1)c1ccc(C(=O)N[C@@H](CCC(=O)O)C(=O)O)cc1 has an IC50 of 11.6 nM.
Work on CN(C)c1ccc(C(=C2C=CC(=[N+](C)C)C=C2)c2ccccc2)cc1 yielded an IC50 of 363 nM.
In the case of Cc1cc(O)c2ccccc2c1O, the IC50 is reported as 1750 nM.
COc1ccc2cc1Oc1ccc(cc1)C[C@H]1c3c(cc4c(c3Oc3cc5c(cc3OC)CCN(C)[C@@H]5C2)OCO4)CCN1C showed an IC50 of 2050 nM.
Compound C=C(C)[C@H]1Cc2c(ccc3c2O[C@@H]2COc4cc(OC)c(OC)cc4[C@@H]2C3=O)O1 has an IC50 of 254 nM.
In the case of COc1cccc2c1C(=O)c1c(O)c3c(c(O)c1C2=O)C[C@@](O)(C(=O)CO)CC3OC1CC(N2CCOC(OC)C2)C(O)C(C)O1 (some centres undefined), the IC50 is reported as > 20000 nM (inactive).
With Oc1c(I)cc(Cl)c2cccnc12 the IC50 was 5400 nM (inactive).
For CCCN(CCC)C(=O)C(CCC(=O)OCCCN1CCN(CCOC(=O)Cc2c(C)n(C(=O)c3ccc(Cl)cc3)c3ccc(OC)cc23)CC1)NC(=O)c1ccccc1 (centres undefined), the IC50 was 13200 nM (inactive).
C[C@@]12C(=O)OC(=O)[C@]1(C)C1CCC2O1 gave an IC50 of 1490 nM.
CCCSc1ccc2nc(NC(=O)OC)[nH]c2c1 was tested, and the IC50 was 12300 nM (inactive).
Cc1ccccc1C(=O)Nc1ccc(C(=O)N2CCCC(N(C)C)c3ccccc32)cc1 (centres undefined) was tested, and the IC50 was 9980 nM (inactive).
With CCCCCCNC(=O)n1cc(F)c(=O)[nH]c1=O the IC50 was 5550 nM (inactive).
With C#C[C@]1(O)CC[C@H]2[C@@H]3CCc4cc(OC5CCCC5)ccc4[C@H]3CC[C@@]21C the IC50 was > 20000 nM (inactive).
In the case of COCc1c(C(C)C)nc(C(C)C)c(/C=C/[C@@H](O)C[C@@H](O)CC(=O)O)c1-c1ccc(F)cc1, the IC50 is reported as > 20000 nM (inactive).
In the case of c1ccc2c(c1)Sc1ccccc1N2CC1CN2CCC1CC2 (centres undefined), the IC50 is reported as > 20000 nM (inactive).
With Cc1c2oc3c(C)ccc(C(=O)N[C@@H]4C(=O)N[C@H](C(C)C)C(=O)N5CCC[C@H]5C(=O)N(C)CC(=O)N(C)[C@@H](C(C)C)C(=O)O[C@@H]4C)c3nc-2c(C(=O)N[C@@H]2C(=O)N[C@H](C(C)C)C(=O)N3CCC[C@H]3C(=O)N(C)CC(=O)N(C)[C@@H](C(C)C)C(=O)O[C@@H]2C)c(N)c1=O (I: T[dV]P[Sar][NMeV] / II: T[dV]P[Sar][NMeV]; ester I:1-I:C, II:1-II:C; linker I:N-II:N via Actinocin(9to1)) the IC50 was 1.5 nM.
For CCCCCCCCCCOCC(O)CN (centres undefined), the IC50 was > 20000 nM (inactive).
Compound COc1cccc2c1C(=O)c1c(O)c3c(c(O)c1C2=O)C[C@@](O)(C(=O)CO)C[C@@H]3O[C@H]1C[C@H](N)[C@H](O[C@@H]2CCCCO2)[C@H](C)O1 has an IC50 of 3950 nM.
CC[C@]1(O)C[C@H]2CN(CCc3c([nH]c4ccccc34)[C@@](C(=O)OC)(c3cc4c(cc3OC)N(C=O)[C@H]3[C@@](O)(C(=O)OC)[C@H](OC(C)=O)[C@]5(CC)C=CCN6CC[C@]43[C@@H]65)C2)C1 showed an IC50 of 5.1 nM.
